From patent EP3333154A1, “CRYSTALLINE FORM OF A SELECTIVE 5-HT6 RECEPTOR ANTAGONIST” (SANDOZ AG, priority 2016, dated 2018)

Experiments:
[1] = Time-dependent solubility in 0.1 N aqueous HCl solution; settings: for Concentration: 0.1 N HCl, (25 ± 1) °C, hydrochloride
Method: The time dependent solubilities of idalopirdine hydrochloride form III and form V in 0.1 N HCl have been determined. Thereby, saturated solutions of both forms have been stirred at controlled temperature of (25 ± 1) °C and known aliquots have been taken after 5, 30 and 60 minutes. After filtering the solids, the idalopiridine concentrations of the remaining mother liquors were determined by HPLC using the same method as provided in Example 3 herein. The absolute solubility values were calculated from a calibration curve generated with solutions of known idalopirdine concentrations. […] Table 4: Time dependent solubility of idalopirdine hydrochloride form III and form V in 0.1 N HCl at (25 ± 1) °C

[2] = Gravimetric moisture sorption (GMS); format: physicochemical
Method: Moisture sorption and desorption curves were recorded with an SPSx-1µ moisture sorption analyzer (ProUmid, Ulm). The measurement cycle was started at ambient RH of 45%. RH was then decreased to 5% in 5% steps, followed by a further decrease to 3% and to 0%. […] Finally, RH was increased to 40% in 5% steps.
The time per step was set to a minimum of 2 hours and a maximum of 6 hours. If an equilibrium condition with a constant mass of ± 0.01 % within 1 hour was reached before the maximum time for all examined samples the sequential humidity step was applied before the maximum time of 6 hours. If no equilibrium was achieved the consecutive humidity step was applied after the maximum time of 6 hours. The temperature was 25 ± 0.1 °C.

[3] = Accelerated stress test at 40 °C/75% RH (HPLC impurities and PXRD); format: physicochemical; settings: 1 month at 40 °C/ 75% RH, open dish
Method: Idalopirdine hydrochloride form V was subjected to accelerated stress conditions of 40 °C and 75% RH in an open dish for one month.

[4] = Differential scanning calorimetry (thermal stability); format: physicochemical; settings: DSC, heating rate 10 K/min
Method: Differential scanning calorimetry (DSC) was performed on a Mettler Polymer DSC R instrument. The sample (4.36 mg) was heated in a 40 microL aluminium pan with pierced aluminium lid from room temperature to 250 °C at a rate of 10 K/min. Nitrogen (purge rate 50 mL/min) was used as purge gas.

[5] = listed as Idalopirdine hydrochloride form V of the present invention

Row | Concentration ([1]; 5 min) [µg/mL] | Concentration ([1]; 30 min) [µg/mL] | Concentration ([1]; 60 min) [µg/mL] | PXRDs before and after the GMS experiment ([2]; 0 to 95% RH, 25 ± 0.1 °C) | mass increase in the sorption cycle ([2]; sorption cycle from 0 to 95% RH, 25 °C) [w-%] | PXRD before and after ([3]; listed as Idalopirdine hydrochloride form V) | Increase of total impurities (HPLC at 225nm) [3, 5] | PXRD before and after [3, 5] | Increase of total impurities (HPLC at 225nm) ([3]; hydrochloride) | higher concentration in 0.1 N HCl [1] | Concentration, difference to Form III ([1]; 5 min) | Concentration, difference to Form III ([1]; 30 min) | Concentration, difference to Form III ([1]; 60 min) | thermally stable up to a temperature [4] | Compound
1 | 500 | 600 | 800 |  |  |  |  |  |  |  |  |  |  |  | Cl.Fc1ccc2c(CCNCc3cccc(OCC(F)(F)C(F)F)c3)c[nH]c2c1 [Form III, N-[2-(6-fluoro-1H-indol-3-yl)ethyl]-3-(2,2,3,3-tetrafluoropropoxy)benzylamine hydrochloride, reference compound]
2 | 700 | 900 | 900 | identical | 0.5 | No change | +0.7 area% | unchanged | about 0.7 area% | up to 50% | +40% | +50% | +12.5% | at least 120 °C | Cl.Fc1ccc2c(CCNCc3cccc(OCC(F)(F)C(F)F)c3)c[nH]c2c1 [Form V, N-[2-(6-fluoro-1H-indol-3-yl)ethyl]-3-(2,2,3,3-tetrafluoropropoxy)benzylamine hydrochloride]
